Data published in PMC8027839 (Scientific Reports, 2021).
“Also recorded” adds a separate entry of the source.

Columns and labels:
SapM [1] = molecular target: T1, SapM (Mycobacterium tuberculosis, UniProt O53361); assay: biochemical; assay type: biochemical
T1 construct: made in house; host or cells: Escherichia coli C41 (DE3)
T1 sequence (O53361 44-299): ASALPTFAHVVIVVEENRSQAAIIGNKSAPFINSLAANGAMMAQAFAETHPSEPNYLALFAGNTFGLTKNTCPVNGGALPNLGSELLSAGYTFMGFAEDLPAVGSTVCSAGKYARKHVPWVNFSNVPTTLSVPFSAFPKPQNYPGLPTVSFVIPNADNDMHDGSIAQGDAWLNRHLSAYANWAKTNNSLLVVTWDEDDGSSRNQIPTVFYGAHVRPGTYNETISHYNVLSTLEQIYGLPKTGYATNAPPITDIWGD

MptpA = MptpA (Mycobacterium tuberculosis, UniProt P9WIA1); assay: biochemical; conditions: pNPP assay, pH 6
Chain of MptpA (P9WIA1 whole entry): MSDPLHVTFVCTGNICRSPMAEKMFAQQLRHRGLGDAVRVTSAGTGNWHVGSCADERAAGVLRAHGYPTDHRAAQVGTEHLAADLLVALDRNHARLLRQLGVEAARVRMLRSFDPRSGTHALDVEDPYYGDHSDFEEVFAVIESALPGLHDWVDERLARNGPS

MptpB = MptpB (Mycobacterium tuberculosis, UniProt I6WXK4); assay: biochemical; conditions: pNPP assay, pH 6
Chain of MptpB (I6WXK4 whole entry, looked up): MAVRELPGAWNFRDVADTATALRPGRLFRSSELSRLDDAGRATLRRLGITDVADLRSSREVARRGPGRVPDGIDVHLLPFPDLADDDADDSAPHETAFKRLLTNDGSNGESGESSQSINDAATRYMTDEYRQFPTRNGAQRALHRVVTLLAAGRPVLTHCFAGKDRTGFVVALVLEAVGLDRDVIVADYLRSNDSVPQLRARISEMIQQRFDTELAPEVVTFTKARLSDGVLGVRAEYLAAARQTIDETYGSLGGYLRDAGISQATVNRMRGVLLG

SapM [2] = molecular target: T1, SapM; assay: Type of inhibition of SapM, Lineweaver-Burk plots; assay type: biochemical
From the text: To determine the type of inhibition different inhibitor concentrations were selected to yield around 30% and 75% inhibition for each concentration of pNPP. This ensures sufficient signal to obtain accurate data while allowing a significant inhibition effect. Velocity (V) was plotted as a function of pNPP concentration and fit in a Lineweaver–Burk plot (double-reciprocal) using GraphPad Prism 8.41. All assays were done in 96-well microplates and performed in triplicate in at least two independent experiments.

Mtb H37Rv strain = assay: Mycobacterium tuberculosis infection assay in THP-1 macrophages; assay type: cell-based; conditions: resting THP-1 macrophages; 1 µM and 40 µM; 24 h and 72 h post infection
[3] = test system: Francisella tularensis live vaccine strain (LVS); assay type: cell-based; conditions: MH-S macrophages; 40 μM; 24 h post infection
F. tularensis = assay type: cell-based, Francisella tularensis; conditions: 40 µM; 24 h
AcpA = AcpA (Francisella tularensis subsp. novicida, UniProt A0Q436); assay: biochemical; conditions: 1 mM; read-out: inhibition of enzymatic activity of AcpA
Chain of AcpA (A0Q436 21-514 limits assumed): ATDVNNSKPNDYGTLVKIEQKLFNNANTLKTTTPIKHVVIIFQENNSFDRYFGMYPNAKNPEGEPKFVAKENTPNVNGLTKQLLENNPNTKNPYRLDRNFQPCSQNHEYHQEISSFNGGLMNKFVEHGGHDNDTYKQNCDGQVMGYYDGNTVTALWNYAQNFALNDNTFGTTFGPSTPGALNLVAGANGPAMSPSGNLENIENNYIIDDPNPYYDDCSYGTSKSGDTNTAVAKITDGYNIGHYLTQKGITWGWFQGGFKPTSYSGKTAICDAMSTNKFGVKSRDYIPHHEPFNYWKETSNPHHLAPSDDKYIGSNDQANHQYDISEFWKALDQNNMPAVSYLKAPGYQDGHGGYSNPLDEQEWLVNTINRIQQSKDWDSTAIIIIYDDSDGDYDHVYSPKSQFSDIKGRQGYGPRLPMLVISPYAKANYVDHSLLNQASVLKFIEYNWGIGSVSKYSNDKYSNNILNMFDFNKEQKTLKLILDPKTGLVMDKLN

SapM [4] = molecular target: T1, SapM; assay: Microscale thermophoresis of SapM binding
Description: Microscale thermophoresis (MST) was used to study the direct binding interaction of SapM with three compounds 1, 2 and 13. SapM was labelled with NTA-647nm dye which attaches to the 6-histidine tag. 100 nM NTA-647 was incubated with 200 nM SapM for 1-hour at 4 °C and then centrifuged at 20,000 rcf for 20 minutes at 4 °C in 20 mM HEPES, 200 mM NaCl pH 7.0. 10 mM compound was diluted to 500 μM in the same buffer. Binding checks were carried out with labelled SapM (5 nM) with and without 250 nM compound with LED power of 20% and a medium MST power in a Monolith Pico instrument and using standard capillaries. Binding analysis was performed with a doubling serial dilution from 250 nM with 16 dilutions and a constant concentration of 5 nM labelled SapM.

M. bovis BCG wild-type = assay type: cell-based; conditions: Raw 264.7 macrophages; 40 µM; 72 h post-infection; vs DMSO
M. bovis BCG ΔsapM = assay type: cell-based; conditions: 40 µM
[5] = Compound precipitation in enzyme assays; assay type: physicochemical; conditions: AcpA Malachite Green assay
[6] = MTT cytotoxicity assay, MH-S; conditions: mouse, MH-S cells (SV40-transformed alveolar macrophage cell line)

Compound: N#CC(C#N)=C(N)/C(C#N)=C/c1cc(O)c(O)c(O)c1 [Compound 1, Tyrphostin 51]
- remaining activity at 100 µM (SapM [1]; 0.5 h, compounds at 100 µM, relative to pNPP DMSO control, read-out: %SA (percentage specific activity of SapM)): 0%
- effect on SapM enzyme activity (SapM [1]; compounds at 100 µM): completely abolished the enzymatic activity; also recorded: abolished enzyme activity completely
- IC50 (SapM [1]; pNPP assay, dose-response): 6.3 ± 1 µM
- IC50 (MptpA): 19.8 ± 1 µM
- IC50 (MptpB): > 100 µM
- mechanism of inhibition of SapM (SapM [2]): uncompetitive inhibitors
- Mtb intracellular burden vs DMSO control (Mtb H37Rv strain): significant (****p < 0.0001) reduction
- reduction of F. tularensis intracellular burden [3]: 55%
- acellular growth of F. tularensis (F. tularensis): does not affect acellular growth
- inhibition at 1000 µM (AcpA): ~30%
- binding to SapM by MST (SapM [4]): confirmed
- EC50 (SapM [4]; Bivalent fit EC50 (1), MST titration, tighter binding mode): 0.52 µM
- intracellular burden of wild-type M. bovis BCG (M. bovis BCG wild-type): reduced the intracellular burden
- intracellular burden of ΔsapM (M. bovis BCG ΔsapM): did not further reduce the intracellular burden
- concentration at which compound precipitates [5]: ≥ 2000 µM
- viability at 24 h [6]: > 70%
